# System: 126254-015-R-J1-PDC complex spheroid growth, % test/control
# Assay: Anticancer human tumor 126254-015-R-J1-PDC patient-derived soft tissue sarcoma cell line growth inhibition [Asc]
# Settings: for IC50: curve of first compound; for viability, T/C: stronger effect = lower value
# In short: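 Complex spheroids combining tumor cells with HUVEC endothelial cells and human MSCs, at 37 degrees C, 5% CO2; agents tested alone or combined, half-log dilutions from at or near clinical Cmax, or 10 microM if Cmax unknown.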
# [1] = second compound 0.1 µM, first compound 0.0316 µM
# [2] = second compound 0.1 µM, first compound 0.1 µM
# [3] = second compound 0.1 µM, first compound 0.316 µM
# [4] = second compound 0.1 µM, first compound 1 µM
# [5] = second compound 0.316 µM, first compound 0.0316 µM
# [6] = second compound 0.316 µM, first compound 0.1 µM
# [7] = second compound 0.316 µM, first compound 0.316 µM
# [8] = second compound 0.316 µM, first compound 1 µM
# [9] = second compound 1 µM, first compound 0.0316 µM
# [10] = second compound 1 µM, first compound 0.1 µM
# [11] = second compound 1 µM, first compound 0.316 µM
# [12] = second compound 1 µM, first compound 1 µM
# [13] = second compound 3.16 µM, first compound 0.0316 µM
# [14] = second compound 3.16 µM, first compound 0.1 µM
# [15] = second compound 3.16 µM, first compound 0.316 µM
# [16] = second compound 3.16 µM, first compound 1 µM
# [17] = second compound 10 µM, first compound 0.0316 µM
# [18] = second compound 10 µM, first compound 0.1 µM
# [19] = second compound 10 µM, first compound 0.316 µM
# [20] = second compound 10 µM, first compound 1 µM
# 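Note: spheroids exposed to compound for seven days.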
# 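Throughout, for viability, T/C: 100% = DMSO vehicle control wells.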
smiles,measurement,setting,value
C#Cc1c(F)ccc2cc(O)cc(-c3ncc4c(N5CC6CCC(C5)N6)nc(OCC56CCCN5CC(F)C6)nc4c3F)c12 (stereo not given) + Cc1c(S(C)(=O)=O)c(-c2cc(F)cc(N3CCN(c4ccc(NS(=O)(=O)c5ccc(NC(CCN6CCC(C(=O)OCCCP(=O)(O)O)CC6)CSc6ccccc6)c(S(=O)(=O)C(F)(F)F)c5)cc4)CC3)c2)c(-c2ccc(Cl)cc2)n1C(C)C,IC50,second compound 0.1 µM,> 10000 nM
same,IC50,second compound 0.316 µM,> 10000 nM
same,IC50,second compound 1 µM,6580 nM
same,IC50,second compound 3.16 µM,7170 nM
same,IC50,second compound 10 µM,9190 nM
same,"viability, T/C",[1],85.4%
same,"viability, T/C",[2],92.8%
same,"viability, T/C",[3],90.4%
same,"viability, T/C",[4],80.9%
same,"viability, T/C","second compound 0.1 µM, first compound 3.16 µM",72.4%
same,"viability, T/C","second compound 0.1 µM, first compound 10 µM",59.9%
same,"viability, T/C",[5],88.5%
same,"viability, T/C",[6],86%
same,"viability, T/C",[7],80.9%
same,"viability, T/C",[8],79.2%
same,"viability, T/C","second compound 0.316 µM, first compound 3.16 µM",72.4%
same,"viability, T/C","second compound 0.316 µM, first compound 10 µM",54.5%
same,"viability, T/C",[9],84%
same,"viability, T/C",[10],92.2%
same,"viability, T/C",[11],73.8%
same,"viability, T/C",[12],81.9%
same,"viability, T/C","second compound 1 µM, first compound 3.16 µM",72.3%
same,"viability, T/C","second compound 1 µM, first compound 10 µM",37.4%
same,"viability, T/C",[13],82.6%
same,"viability, T/C",[14],90.8%
same,"viability, T/C",[15],83.4%
same,"viability, T/C",[16],79.5%
same,"viability, T/C","second compound 3.16 µM, first compound 3.16 µM",65.8%
same,"viability, T/C","second compound 3.16 µM, first compound 10 µM",43.6%
same,"viability, T/C",[17],87.1%
same,"viability, T/C",[18],88.4%
same,"viability, T/C",[19],81.2%
same,"viability, T/C",[20],75.5%
same,"viability, T/C","second compound 10 µM, first compound 3.16 µM",75%
same,"viability, T/C","second compound 10 µM, first compound 10 µM",47.8%
CNC(C)C(=O)NC1CN(S(=O)(=O)c2cccc(S(=O)(=O)N3CCC4CCC(C(=O)NC(c5ccccc5)c5ccccc5)N4C(=O)C(NC(=O)C(C)NC)C3)c2)CCC2CCC(C(=O)NC(c3ccccc3)c3ccccc3)N2C1=O (stereo not given) + Cc1c(S(C)(=O)=O)c(-c2cc(F)cc(N3CCN(c4ccc(NS(=O)(=O)c5ccc(NC(CCN6CCC(C(=O)OCCCP(=O)(O)O)CC6)CSc6ccccc6)c(S(=O)(=O)C(F)(F)F)c5)cc4)CC3)c2)c(-c2ccc(Cl)cc2)n1C(C)C,IC50,second compound 0.1 µM,> 1000 nM
same,IC50,second compound 0.316 µM,90.5 nM
same,IC50,second compound 1 µM,107 nM
same,IC50,second compound 3.16 µM,74.8 nM
same,IC50,second compound 10 µM,59.8 nM
same,"viability, T/C","second compound 0.1 µM, first compound 0.00316 µM",83%
same,"viability, T/C","second compound 0.1 µM, first compound 0.01 µM",84.8%
same,"viability, T/C",[1],67.3%
same,"viability, T/C",[2],55.6%
same,"viability, T/C",[3],56.2%
same,"viability, T/C",[4],45%
same,"viability, T/C","second compound 0.316 µM, first compound 0.00316 µM",85.8%
same,"viability, T/C","second compound 0.316 µM, first compound 0.01 µM",81.9%
same,"viability, T/C",[5],63.1%
same,"viability, T/C",[6],47.3%
same,"viability, T/C",[7],49.7%
same,"viability, T/C",[8],36.5%
same,"viability, T/C","second compound 1 µM, first compound 0.00316 µM",87.5%
same,"viability, T/C","second compound 1 µM, first compound 0.01 µM",81.5%
same,"viability, T/C",[9],66.9%
same,"viability, T/C",[10],47.9%
same,"viability, T/C",[11],46.9%
same,"viability, T/C",[12],36.3%
same,"viability, T/C","second compound 3.16 µM, first compound 0.00316 µM",90.7%
same,"viability, T/C","second compound 3.16 µM, first compound 0.01 µM",79%
same,"viability, T/C",[13],60.7%
same,"viability, T/C",[14],46.1%
same,"viability, T/C",[15],38.1%
same,"viability, T/C",[16],32.6%
same,"viability, T/C","second compound 10 µM, first compound 0.00316 µM",80.2%
same,"viability, T/C","second compound 10 µM, first compound 0.01 µM",78.6%
same,"viability, T/C",[17],64.3%
same,"viability, T/C",[18],38.2%
same,"viability, T/C",[19],30.6%
same,"viability, T/C",[20],27.8%
Cc1nc(N2CCC3(CC2)COC(C)C3N)c(CO)nc1Sc1ccnc(N)c1Cl (stereo not given) + Cc1c(S(C)(=O)=O)c(-c2cc(F)cc(N3CCN(c4ccc(NS(=O)(=O)c5ccc(NC(CCN6CCC(C(=O)OCCCP(=O)(O)O)CC6)CSc6ccccc6)c(S(=O)(=O)C(F)(F)F)c5)cc4)CC3)c2)c(-c2ccc(Cl)cc2)n1C(C)C,IC50,second compound 0.1 µM,765 nM
same,IC50,second compound 0.316 µM,451 nM
same,IC50,second compound 1 µM,501 nM
same,IC50,second compound 3.16 µM,362 nM
same,IC50,second compound 10 µM,465 nM
same,"viability, T/C","second compound 0.1 µM, first compound 0.00949 µM",88.7%
same,"viability, T/C","second compound 0.1 µM, first compound 0.03 µM",82.2%
same,"viability, T/C","second compound 0.1 µM, first compound 0.0949 µM",68.6%
same,"viability, T/C","second compound 0.1 µM, first compound 0.3 µM",56.7%
same,"viability, T/C","second compound 0.1 µM, first compound 0.949 µM",51.9%
same,"viability, T/C","second compound 0.1 µM, first compound 3 µM",34.4%
same,"viability, T/C","second compound 0.316 µM, first compound 0.00949 µM",83.1%
same,"viability, T/C","second compound 0.316 µM, first compound 0.03 µM",77.6%
same,"viability, T/C","second compound 0.316 µM, first compound 0.0949 µM",67.8%
same,"viability, T/C","second compound 0.316 µM, first compound 0.3 µM",55.3%
same,"viability, T/C","second compound 0.316 µM, first compound 0.949 µM",41%
same,"viability, T/C","second compound 0.316 µM, first compound 3 µM",34.2%
same,"viability, T/C","second compound 1 µM, first compound 0.00949 µM",80.8%
same,"viability, T/C","second compound 1 µM, first compound 0.03 µM",75.7%
same,"viability, T/C","second compound 1 µM, first compound 0.0949 µM",72.2%
same,"viability, T/C","second compound 1 µM, first compound 0.3 µM",54.4%
same,"viability, T/C","second compound 1 µM, first compound 0.949 µM",43.2%
same,"viability, T/C","second compound 1 µM, first compound 3 µM",30.7%
same,"viability, T/C","second compound 3.16 µM, first compound 0.00949 µM",78.6%
same,"viability, T/C","second compound 3.16 µM, first compound 0.03 µM",80.7%
same,"viability, T/C","second compound 3.16 µM, first compound 0.0949 µM",70.4%
same,"viability, T/C","second compound 3.16 µM, first compound 0.3 µM",51.7%
same,"viability, T/C","second compound 3.16 µM, first compound 0.949 µM",40.1%
same,"viability, T/C","second compound 3.16 µM, first compound 3 µM",34.6%
same,"viability, T/C","second compound 10 µM, first compound 0.00949 µM",79.2%
same,"viability, T/C","second compound 10 µM, first compound 0.03 µM",84.7%
same,"viability, T/C","second compound 10 µM, first compound 0.0949 µM",74%
same,"viability, T/C","second compound 10 µM, first compound 0.3 µM",56.1%
same,"viability, T/C","second compound 10 µM, first compound 0.949 µM",40.2%
same,"viability, T/C","second compound 10 µM, first compound 3 µM",32%

# From PubChem BioAssay AID1963429 (Molecular Pharmacology Branch, DTP, NCI, 2024)
